Experimental findings from patent publication US8912188B2, “Substituted quinoxaline carboxylic acids for the inhibition of PASK” (BioEnergenix, LLC, priority 2011, dated 2014) are described below.

Assay [1] has as its target T1, PASK (UniProt #Q96RG2; human recombinant N-terminal GST tagged construct, residues 879-1323) (Homo sapiens, UniProt Q96RG2).
T1 construct: human recombinant N-terminal GST tagged construct, residues 879-1323; GST (N); host or cells: insect cells
As to the kind of experiment: PASK ATP Radiochemical Assay. The assay is classed as biochemical. To be noted: 33P-ATP, Myelin Basic Protein substrate, 120 min at room temperature, read-out: IC50 Kinase Domain. As to the method:
Biochemical Assay for hPASK Activity
PASK ATP Radiochemical Assay
Test compounds in DMSO are then added and the mixture, followed by delivery of ^33P-ATP (specific activity 0.01 μCi/μl final) to initiate the reaction. […] The entire reaction mixture is washed through onto a P81 Phosphocellulose paper and washed three times for 10 minutes in 75 mM phosphoric acid and once in methanol prior to drying and scintillation counting.

The target in assay [2] is T2, PASK (Invitrogen) (Homo sapiens, UniProt Q96RG2).
T2 construct: IC50 Kinase Domain; purchased Invitrogen
T2 sequence (Q96RG2 999-1251 limits assumed): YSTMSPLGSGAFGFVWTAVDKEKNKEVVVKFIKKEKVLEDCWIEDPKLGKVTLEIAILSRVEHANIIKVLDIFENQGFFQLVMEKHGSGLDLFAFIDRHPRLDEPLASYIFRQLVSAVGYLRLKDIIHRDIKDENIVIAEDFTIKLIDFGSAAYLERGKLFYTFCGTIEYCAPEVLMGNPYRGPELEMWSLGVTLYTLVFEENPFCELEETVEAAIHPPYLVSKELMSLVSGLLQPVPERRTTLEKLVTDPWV
As to the kind of experiment: PAS Kinase FRET Assay. The format is biochemical. The conditions noted are these: PAS kinase TR-FRET assay (665 nm/615 nm), 2 hours at 25° C.; read-out: IC50 Kinase Domain.

T1 sequence (Q96RG2 879-1323, stated change not applied): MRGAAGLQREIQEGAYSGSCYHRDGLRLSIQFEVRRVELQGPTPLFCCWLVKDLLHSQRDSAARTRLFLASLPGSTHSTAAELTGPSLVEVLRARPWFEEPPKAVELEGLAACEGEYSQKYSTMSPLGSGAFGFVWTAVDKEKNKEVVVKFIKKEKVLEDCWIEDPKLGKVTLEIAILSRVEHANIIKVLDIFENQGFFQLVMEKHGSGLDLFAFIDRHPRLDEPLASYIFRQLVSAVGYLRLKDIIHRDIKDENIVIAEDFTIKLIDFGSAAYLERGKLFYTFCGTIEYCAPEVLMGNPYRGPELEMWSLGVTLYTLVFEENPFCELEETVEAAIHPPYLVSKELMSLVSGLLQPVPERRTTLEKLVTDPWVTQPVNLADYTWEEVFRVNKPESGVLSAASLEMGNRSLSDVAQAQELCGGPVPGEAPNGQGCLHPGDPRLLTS

As to `C[C@H]1CCCN1c1nc2cc(C(=O)O)ccc2nc1-c1cc2cc(F)ccc2s1` [Example 55, (S)-2-(5-Fluorobenzo[b]thiophen-2-yl)-3-(2-methylpyrrolidin-1-yl)quinoxaline-6-carboxylic acid], the 50% inhibitory concentration (IC50) in assay [1] and in assay [2] was less than 10 µM each time. Consider `CC(C)N(C)c1nc2cc(C(=O)O)ccc2nc1-c1cc2cc(Cl)ccc2o1` [Example 19, 2-(5-Chlorobenzofuran-2-yl)-3-(isopropyl(methyl)amino)quinoxaline-6-carboxylic acid], for which the concentration for half-maximal inhibition (IC50) in assay [1] and in assay [2] was less than 10 µM each time. With `CCN(c1nc2cc(C(=O)O)ccc2nc1-c1ccc(F)cc1)C(C)C` [Example 111, 3-(Ethyl(isopropyl)amino)-2-(4-fluorophenyl)quinoxaline-6-carboxylic acid], the concentration for half-maximal inhibition (IC50) in assay [1] and in assay [2] was less than 10 µM in each case. Turning to `CN(c1nc2cc(C(=O)O)ccc2nc1-c1ccc(F)cc1)C1CCCC1` [Example 135, 3-(Cyclopentyl(methyl)amino)-2-(4-fluorophenyl)quinoxaline-6-carboxylic acid], the concentration for half-maximal inhibition (IC50) in assay [1] and in assay [2] was less than 10 µM each time.

For the molecule `Cc1c[nH]c2ccc(-c3nc4ccc(C(=O)O)cc4nc3N(C)C(C)C)cc12` [Example 86, 3-(Isopropyl(methyl)amino)-2-(3-methyl-1H-indol-5-yl)quinoxaline-6-carboxylic acid], the IC50 in assay [1] and in assay [2] was less than 10 µM each time. Consider `CC(C)N(C)c1nc2cc(C(=O)O)ccc2nc1-c1cc2ccc(F)cc2o1` [Example 45, 2-(6-Fluoro-1-benzofuran-2-yl)-3-[methyl(propan-2-yl)amino]quinoxaline-6-carboxylic acid], for which the IC50 in assay [1] and in assay [2] was less than 10 µM throughout. With `CC[C@@H](C)N(C)c1nc2cc(C(=O)O)ccc2nc1-c1cc2cc(F)ccc2o1` [Example 74, (R)-3-(sec-Butyl(methyl)amino)-2-(5-fluorobenzofuran-2-yl)quinoxaline-6-carboxylic acid], the IC50 in assay [1] and in assay [2] was less than 10 µM in each case. As to `Cc1coc2ccc(-c3nc4ccc(C(=O)O)cc4nc3N(C)C(C)C)cc12` [Example 85, 3-[Methyl(propan-2-yl)amino]-2-(3-methyl-1-benzofuran-5-yl)quinoxaline-6-carboxylic acid], the 50% inhibitory concentration (IC50) in assay [1] and in assay [2] was less than 10 µM in each case. For the molecule `C[C@H]1CCCN1c1nc2cc(C(=O)O)c(O)cc2nc1-c1ccc2[nH]ncc2c1` [Example 93, (S)-7-Hydroxy-2-(1H-indazol-5-yl)-3-(2-methylpyrrolidin-1-yl)quinoxaline-6-carboxylic acid], the IC50 in assay [1] and in assay [2] was less than 10 µM each time. In the case of `CCN(CC)c1nc2cc(C(=O)O)ccc2nc1-c1ccc(F)cc1` [Example 113, 3-(Diethylamino)-2-(4-fluorophenyl)quinoxaline-6-carboxylic acid], the IC50 in assay [1] and in assay [2] was less than 10 µM each time. Take `C[C@@H]1CCCN1c1nc2cc(C(=O)O)ccc2nc1-c1ccc2c(c1)OCO2` [Example 87, (R)-2-(Benzo[d][1,3]dioxol-5-yl)-3-(2-methylpyrrolidin-1-yl)quinoxaline-6-carboxylic acid]: the IC50 in assay [1] and in assay [2] was less than 10 µM throughout.

With `C[C@H]1CCCN1c1nc2cc(C(=O)O)ccc2nc1-c1ccc2scnc2c1` [Example 57, 2-(1,3-Benzothiazol-5-yl)-3-[(2S)-2-methylpyrrolidin-1-yl]quinoxaline-6-carboxylic acid], the IC50 in assay [1] and in assay [2] was less than 10 µM in each case. Take `CC(C)N(C)c1nc2cc(C(=O)O)ccc2nc1-c1cc2ccccc2s1` [Example 23, 2-(Benzo[b]thiophen-2-yl)-3-(isopropyl(methyl)amino)quinoxaline-6-carboxylic acid]: the IC50 in assay [1] and in assay [2] was less than 10 µM throughout.

`CN(c1nc2cc(C(=O)O)ccc2nc1-c1ccc(F)cc1)C1CCC1` [Example 146, 3-(Cyclobutyl(methyl)amino)-2-(4-fluorophenyl)quinoxaline-6-carboxylic acid]: the IC50 in assay [1] and in assay [2] was less than 10 µM in each case. Consider `C[C@H]1CCCCN1c1nc2cc(C(=O)O)ccc2nc1-c1ccc(F)cc1F` [Example 116, (S)-2-(2,4-Difluorophenyl)-3-(2-methylpiperidin-1-yl)quinoxaline-6-carboxylic acid], for which the IC50 in assay [1] and in assay [2] was less than 10 µM each time. As to `Cc1n[nH]c2ccc(-c3nc4ccc(C(=O)O)cc4nc3N(C)C(C)C)cc12` [Example 44, 2-(3-Methyl-M-indazol-5-yl)-3-(isopropyl(methyl)amino)quinoxaline-6-carboxylic acid], the IC50 in assay [1] and in assay [2] was less than 10 µM in each case. `CCCN(CCC)c1nc2cc(C(=O)O)ccc2nc1-c1ccc(F)cc1` [Example 140, 3-(Dipropylamino)-2-(4-fluorophenyl)quinoxaline-6-carboxylic acid]: the IC50 in assay [1] and in assay [2] was less than 10 µM throughout. As to `CC(C)N(C)c1nc2cc(C(=O)O)c(O)cc2nc1-c1ccc(F)cc1` [Example 120, 2-(4-Fluorophenyl)-7-hydroxy-3-(isopropyl(methyl)amino)quinoxaline-6-carboxylic acid], the 50% inhibitory concentration (IC50) in assay [1] and in assay [2] was less than 10 µM in each case. `CC(C)N(C)c1nc2cc(C(=O)O)ccc2nc1-c1cc(-c2ccccc2)co1` [Example 52, 3-[Methyl(propan-2-yl)amino]-2-(4-phenylfuran-2-yl)quinoxaline-6-carboxylic acid]: the concentration for half-maximal inhibition (IC50) in assay [1] and in assay [2] was less than 10 µM throughout. Consider `C[C@@H]1CCCCN1c1nc2cc(C(=O)O)ccc2nc1-c1ccc(F)cc1` [Example 121, (R)-2-(4-Fluorophenyl)-3-(2-methylpiperidin-1-yl)quinoxaline-6-carboxylic acid], for which the IC50 in assay [1] and in assay [2] was less than 10 µM throughout. Take `Cc1cc2cc(-c3nc4ccc(C(=O)O)cc4nc3N3CCCC[C@@H]3C)ccc2[nH]1` [Example 88, (S)-2-(2-Methyl-1H-indol-5-yl)-3-(2-methylpiperidin-1-yl)quinoxaline-6-carboxylic acid]: the half-inhibitory concentration (IC50) in assay [1] and in assay [2] was less than 10 µM in each case.

With `CC(C)N(C)c1nc2cc(C(=O)O)ccc2nc1-c1ccc2[nH]nnc2c1` [Example 94, 2-(1H-Benzo[d][1,2,3]triazol-5-yl)-3-(isopropyl(methyl)amino)quinoxaline-6-carboxylic acid], in assay [2], the IC50 is less than 10 µM.

Regarding `C[C@H]1CCCN1c1nc2cc(C(=O)O)ccc2nc1-c1cc2cc(F)ccc2o1` [Example 41, (S)-2-(5-Fluorobenzofuran-2-yl)-3-(2-methylpyrrolidin-1-yl)quinoxaline-6-carboxylic acid], the concentration for half-maximal inhibition (IC50) in assay [2] was less than 10 µM. The same measure, in the same setting: the value for `CCN1CCN(c2nc3cc(C(=O)O)ccc3nc2-c2ccc(F)cc2)[C@@H](C)C1` [Example 138, (S)-3-(4-Ethyl-2-methylpiperazin-1-yl)-2-(4-fluorophenyl)quinoxaline-6-carboxylic acid] was less than 10 µM; that for `CC(C)N(C)c1nc2cc(C(=O)O)ccc2nc1-c1ccc(C(N)=O)cc1` [Example 119, 2-(4-Carbamoylphenyl)-3-(isopropyl(methyl)amino)quinoxaline-6-carboxylic acid] was less than 10 µM. With `CC(C)N(C)c1nc2cc(C(=O)O)ccc2nc1-c1ccnc(F)c1` [Example 11, 2-(2-Fluoropyridin-4-yl)-3-(isopropyl(methyl)amino)quinoxaline-6-carboxylic acid], the 50% inhibitory concentration (IC50) in assay [2] was less than 10 µM. On the same count and under the same terms, the value for `CC(C)N(C)c1nc2cc(C(=O)O)ccc2nc1-c1ccc2[nH]ncc2c1` [Example 8, 2-(1H-Indazol-5-yl)-3-(isopropyl(methyl)amino)quinoxaline-6-carboxylic acid] was less than 10 µM. The same measure, in the same setting: the value for `CC(C)N(C)c1nc2cc(C(=O)O)ccc2nc1-c1coc2ccccc12` [Example 1, 2-(Benzofuran-3-yl)-3-(isopropyl(methyl)amino)quinoxaline-6-carboxylic acid] was less than 10 µM. Still for that read-out and setting: as for `CC(C)N(C)c1nc2cc(C(=O)O)ccc2nc1-c1ccc2c(cnn2C)c1` [Example 25, 3-(Isopropyl(methyl)amino)-2-(1-methyl-1H-indazol-5-yl)quinoxaline-6-carboxylic acid], the figure is less than 10 µM; as for `CN(c1nc2cc(C(=O)O)ccc2nc1-c1ccc(F)cc1)[C@H]1CC[C@H](O)CC1` [Example 125, 2-(4-Fluorophenyl)-3-(((1r,4r)-4-hydroxycyclohexyl)(methyl)amino)quinoxaline-6-carboxylic acid], less than 10 µM. For `COc1ccc2oc(-c3nc4ccc(C(=O)O)cc4nc3N(C)C(C)C)cc2c1` [Example 17, 3-(Isopropyl(methyl)amino)-2-(5-methoxybenzofuran-2-yl)quinoxaline-6-carboxylic acid], the IC50 in assay [2] is less than 10 µM.

For `Cc1cc(F)ccc1-c1nc2ccc(C(=O)O)cc2nc1N1CCC[C@@H]1C` [Example 117, (S)-2-(4-Fluoro-2-methylphenyl)-3-(2-methylpyrrolidin-1-yl)quinoxaline-6-carboxylic acid], the half-maximal inhibitory concentration (IC50) in assay [2] is less than 10 µM.

As for `O=C(O)c1ccc2nc(-c3ccc4[nH]ccc4c3)c(N3CCCCCC3)nc2c1` [Example 37, 3-(Azepan-1-yl)-2-(1H-indol-5-yl)quinoxaline-6-carboxylic acid], in assay [2], the 50% inhibitory concentration (IC50) is less than 10 µM. Still for that read-out and setting: as for `CC(C)N(C)c1nc2cc(C(=O)O)ccc2nc1-c1ccc2cnn(C)c2c1` [Example 5, 3-(Isopropyl(methyl)amino)-2-(1-methyl-1H-indazol-6-yl)quinoxaline-6-carboxylic acid], the figure is less than 10 µM.
